Reference: ChEMBL document CHEMBL1201862, “PubChem BioAssay data set” (2004)
The source made the active and inactive calls.

Key:
[1] = biological target: T1, Tyrosyl-DNA phosphodiesterase 2 (Homo sapiens, UniProt O95551); test: human TDP2 enzyme inhibitors, dose response, biochemical, epi absorbance, IC50 (AID 743297)
T1 sequence (O95551 whole entry): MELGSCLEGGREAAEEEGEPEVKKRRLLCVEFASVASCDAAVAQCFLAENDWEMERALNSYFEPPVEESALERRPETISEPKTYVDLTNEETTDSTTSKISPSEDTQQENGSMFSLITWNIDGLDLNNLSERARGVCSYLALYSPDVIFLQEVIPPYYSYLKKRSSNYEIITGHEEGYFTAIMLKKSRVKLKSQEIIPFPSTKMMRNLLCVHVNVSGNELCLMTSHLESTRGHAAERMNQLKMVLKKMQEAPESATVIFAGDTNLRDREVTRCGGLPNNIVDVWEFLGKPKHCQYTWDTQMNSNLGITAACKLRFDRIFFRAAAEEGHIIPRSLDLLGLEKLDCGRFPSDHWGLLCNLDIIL

[2] = biological target: T2, Apoptotic protease-activating factor 1 (Homo sapiens, UniProt O14727); format: functional
T2 sequence (O14727 whole entry): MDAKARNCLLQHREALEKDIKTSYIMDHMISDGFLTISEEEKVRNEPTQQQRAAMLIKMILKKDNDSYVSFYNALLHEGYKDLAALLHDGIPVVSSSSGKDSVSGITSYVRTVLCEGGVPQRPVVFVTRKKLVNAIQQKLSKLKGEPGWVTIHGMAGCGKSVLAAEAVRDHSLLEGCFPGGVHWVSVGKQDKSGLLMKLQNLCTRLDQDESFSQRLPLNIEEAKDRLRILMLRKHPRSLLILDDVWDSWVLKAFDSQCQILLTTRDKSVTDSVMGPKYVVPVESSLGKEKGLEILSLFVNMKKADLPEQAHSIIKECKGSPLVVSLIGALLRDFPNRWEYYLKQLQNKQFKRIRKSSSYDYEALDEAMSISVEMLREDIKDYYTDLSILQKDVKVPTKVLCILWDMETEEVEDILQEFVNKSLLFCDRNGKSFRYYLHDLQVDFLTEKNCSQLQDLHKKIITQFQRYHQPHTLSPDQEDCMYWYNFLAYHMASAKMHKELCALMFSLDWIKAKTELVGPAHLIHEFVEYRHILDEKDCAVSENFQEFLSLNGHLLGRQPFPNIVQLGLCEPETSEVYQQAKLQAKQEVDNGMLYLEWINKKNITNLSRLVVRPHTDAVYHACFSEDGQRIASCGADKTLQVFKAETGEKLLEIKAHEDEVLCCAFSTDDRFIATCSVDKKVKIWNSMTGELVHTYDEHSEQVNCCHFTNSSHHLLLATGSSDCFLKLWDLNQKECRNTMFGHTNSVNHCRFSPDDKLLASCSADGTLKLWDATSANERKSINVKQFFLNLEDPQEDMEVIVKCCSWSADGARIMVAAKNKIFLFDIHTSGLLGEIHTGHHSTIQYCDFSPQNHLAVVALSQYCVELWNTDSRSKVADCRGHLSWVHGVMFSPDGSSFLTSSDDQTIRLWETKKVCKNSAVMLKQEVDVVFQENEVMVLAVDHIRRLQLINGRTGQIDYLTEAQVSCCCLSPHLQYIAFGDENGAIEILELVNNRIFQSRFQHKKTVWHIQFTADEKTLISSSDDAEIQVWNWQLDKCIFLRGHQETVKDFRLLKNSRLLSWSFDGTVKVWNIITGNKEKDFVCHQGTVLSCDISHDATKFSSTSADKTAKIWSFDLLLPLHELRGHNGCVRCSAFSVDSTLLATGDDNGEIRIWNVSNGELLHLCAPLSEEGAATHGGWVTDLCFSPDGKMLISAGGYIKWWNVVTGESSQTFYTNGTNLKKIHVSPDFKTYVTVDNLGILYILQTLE

[3] = biological target: T3, Histone-lysine N-methyltransferase NSD2 (Homo sapiens, UniProt O96028); format: biochemical
T3 sequence (O96028 whole entry): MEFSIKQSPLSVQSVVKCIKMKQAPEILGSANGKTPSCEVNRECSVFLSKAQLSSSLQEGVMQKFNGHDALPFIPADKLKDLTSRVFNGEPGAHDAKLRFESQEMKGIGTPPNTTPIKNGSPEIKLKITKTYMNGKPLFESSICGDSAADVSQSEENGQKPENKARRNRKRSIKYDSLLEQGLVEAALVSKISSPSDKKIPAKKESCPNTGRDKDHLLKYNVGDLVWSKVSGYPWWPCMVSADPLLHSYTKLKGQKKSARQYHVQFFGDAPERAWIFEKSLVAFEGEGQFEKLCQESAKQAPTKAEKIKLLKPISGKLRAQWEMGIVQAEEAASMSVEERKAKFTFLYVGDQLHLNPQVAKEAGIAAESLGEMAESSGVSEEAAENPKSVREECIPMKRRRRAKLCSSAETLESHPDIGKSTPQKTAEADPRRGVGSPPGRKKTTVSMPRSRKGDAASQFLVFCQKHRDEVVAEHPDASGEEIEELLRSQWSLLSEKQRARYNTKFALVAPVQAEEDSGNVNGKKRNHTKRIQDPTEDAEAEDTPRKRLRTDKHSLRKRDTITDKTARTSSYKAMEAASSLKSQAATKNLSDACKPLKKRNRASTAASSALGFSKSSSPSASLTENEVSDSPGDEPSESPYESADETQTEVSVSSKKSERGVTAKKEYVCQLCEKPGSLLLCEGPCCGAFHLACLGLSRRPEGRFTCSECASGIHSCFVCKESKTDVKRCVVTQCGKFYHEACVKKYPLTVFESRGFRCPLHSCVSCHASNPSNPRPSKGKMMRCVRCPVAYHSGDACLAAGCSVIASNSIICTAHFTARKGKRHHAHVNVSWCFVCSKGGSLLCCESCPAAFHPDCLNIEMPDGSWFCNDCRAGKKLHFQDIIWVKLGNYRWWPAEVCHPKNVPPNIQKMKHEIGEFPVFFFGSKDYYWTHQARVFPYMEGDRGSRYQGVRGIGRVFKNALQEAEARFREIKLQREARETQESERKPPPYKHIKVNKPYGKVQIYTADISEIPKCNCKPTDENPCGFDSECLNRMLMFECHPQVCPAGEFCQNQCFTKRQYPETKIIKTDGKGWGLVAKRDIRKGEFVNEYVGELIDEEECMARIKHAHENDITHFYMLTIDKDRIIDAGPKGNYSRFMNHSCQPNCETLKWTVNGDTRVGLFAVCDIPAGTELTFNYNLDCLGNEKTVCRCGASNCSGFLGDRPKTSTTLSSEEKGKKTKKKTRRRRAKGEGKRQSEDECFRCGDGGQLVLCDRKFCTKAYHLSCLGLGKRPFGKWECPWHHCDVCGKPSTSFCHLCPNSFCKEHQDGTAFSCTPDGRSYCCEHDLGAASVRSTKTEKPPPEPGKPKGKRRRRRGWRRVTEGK

CC(=O)N(C1=C(Cl)C(=O)c2ccccc2C1=O)c1ccc(C(=O)O)cc1
active: IC50 [1] 9.4 µM | IC50 [2] 2.92 µM | AC50 [3] 3.29 µM

CC1(C)C=C2C(=NN(c3ccccc3)C(N)=C2C#N)CO1
active: IC50 [1] 1.27 µM | IC50 [2] 1.38 µM | AC50 [3] 5.67 µM
